Source: patent US8283376B2, “Use of substituted 2-aminotetralins for preventive treatment of parkinson's disease” (UCB Pharma GmbH, priority 2003, dated 2012)

Assays:
[1] = system: neurones of the substantia nigra; test: Acute MPTP model (including apoptosis), FluoroJade staining of degenerating neurones; format: in vivo; conditions: mouse; for No. of degenerating neurones: FluoroJade staining
Protocol: (§1) The 2-aminotetralins according to the invention, in particular rotigotine, thereby display a neuroprotective effect in a mouse model of Parkinson's disease: Following the acute administration of MPTP, which causes Parkinson's syndrome in both humans and monkeys, the number of the degenerating neurones in the acute phase was measured on the one hand (Table 1) and the functional integrity of the striatum in the sub-acute phase was ascertained on the other by determining the density of the dopamine transporter in the terminal nerve endings (FIGS. 1 and 2).
For the purpose of intoxication, 80 mg/kg of the neurotoxin 1-methyl-4-phenyl-1,2,3,6-tetrahydro-pyridine (MPTP) were administered to mice (in doses of 20 mg/kg at two-hour intervals), which led to the degeneration of approximately 50 to 60% of the neurones of the substantia nigra. Approximately 16 hours beforehand, rotigotine was administered in doses of 0.3, 1 or 3 mg/kg respectively, as the so-called “slow-release formulation”. Diffusion and absorption latencies led to rotigotine then being optimally available when MPTP was administered. The animals were killed after 24 hours and their brains fixed. The brain sections were stained with FluoroJade to identify degenerating cells. The immunohistochemical marking of tyrosine-hydroxylase helped to identify dopaminergic neurones.

[2] = system: patients with Parkinson's disease; conditions: cited from earlier work
[3] = system: monkeys (macaques) injected with MPTP; test: Progressive MPTP primate model of morbus Parkinson (pilot study); format: in vivo
Protocol: In the model used, which reflects the progressive course of morbus Parkinson in primates, monkeys (macaques) were injected with subliminal toxic doses of MPTP for several days. Parkinson's symptoms developed in the model over a period of approximately 2 weeks. As soon as a certain level of damage had been reached, rotigotine was injected daily in a formulation that produced a continuous plasma level over 24 hours. The MPTP injections were stopped as soon as the motor activity had been reduced to a certain extent (approximately 5 days later). The behavior of the animals was assessed on a daily basis. […] A group of animals was killed at the end of both the rotigotine administration and the clearance phase, and the condition of the basal ganglia was histologically and biochemically examined.

[4] = system: dopamine transporters in the striatum; test: Sub-acute MPTP model, dopamine transporter density in the striatum ([125I]PE2I binding); format: in vivo, mice
Protocol: Groups 1 to 7 were treated as follows: Group 1: untreated control group; Group 2: control group treated with a vehicle solution for rotigotine and MPTP; Group 3: MPTP treatment; Group 4: MPTP treatment plus rotigotine 0.3 mg/kg; Group 5: MPTP treatment plus rotigotine 1.0 mg/kg; Group 6: MPTP treatment plus rotigotine 3.0 mg/kg; Group 7: treatment solely with rotigotine (3.0 mg/kg).
as §1
For the purpose of intoxication, 80 mg/kg of the neurotoxin 1-methyl-4-phenyl-1,2,3,6-tetrahydro-pyridine (MPTP) were administered to mice (in doses of 20 mg/kg at two-hour intervals, groups 3 to 6 in FIGS. 1 and 2), which led to the degeneration of approximately 50 to 60% of the neurones of the substantia nigra (maximum degeneration in group 3 in FIGS. 1 and 2). […]

## CCCN(CCc1cccs1)C1CCc2c(O)cccc2C1 (single isomer, unassigned; (-)) [rotigotine, (−)-5,6,7,8-tetrahydro-6-[propyl[2-(2-thienyl)ethyl]amino]-1-naphthol]
[1]; MPTP intoxication + rotigotine 0.3 mg/kg
  No. of degenerating neurones: 66.7
[1]; MPTP intoxication + rotigotine 1.0 mg/kg
  No. of degenerating neurones: 76.8
[1]; MPTP intoxication + rotigotine 3.0 mg/kg
  No. of degenerating neurones: 34.9
[1]; MPTP-vehicle + rotigotine 3.0 mg/kg (no MPTP)
  No. of degenerating neurones: 3.8
[1]; acute MPTP model, 24 hours, treated vs untreated animals
  Staining of tyrosine hydroxylase (dopaminergic neurones): did not display any differences between the treated and untreated animals
[1]; acute MPTP model, versus MPTP intoxication
  Reduction of the number of degenerating neurones following application of rotigotine: approximately 50%
[1]; acute phase after MPTP
  Number of degenerating neurones in the mesencephalon: reduced
[2]; patients with pronounced dyskinesias, Metman et al. (2001)
  Dyskinesias: improved
[2]; transdermal administration, patients with Parkinson's disease, WO 02/089777
  UPDRS (Unified Parkinson's Disease Rating Scale) score: improvement
[3]; compared to untreated animals
  Density of the nerve endings in the striatum: significantly increased
[3]; daily rotigotine injections, during treatment and in the following clearance phase
  Motor activity of the animals: clearly improved
[3]; following treatment and the clearance phase
  Content of pre-pro-enkephalin (basal ganglia): showed a tendency towards normalisation
[4]; mice, MPTP 80 mg/kg, rotigotine 0.3, 1 or 3 mg/kg daily for 7 days, slow-release formulation
  Survival of the neurones and their nerve endings (dopamine transporter density in the striatum): improved the survival of the neurones and their nerve endings depending on the dosage
[4]; mouse, sub-acute phase after MPTP
  Dopaminergic innervation of the striatum (density of the dopamine transporter): almost completely maintained or restored
